Data as given in the supplement of paper PMC10307832.

What was measured:
Test in all cases: relative viability (nuclei count vs DMSO), 5 days (fraction); higher = more cells survive
JQ1 = compound: Cc1sc2c(c1C)C(c1ccc(Cl)cc1)=N[C@@H](CC(=O)OC(C)(C)C)c1nnc(C)n1-2 [JQ1]
Outline: (§1)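 Viability here means nuclei in treated wells divided by nuclei in vehicle wells, reported as the median across plates. Only plates with control CV below 25% and at least one doubling passed. Lung cancer cell lines in 1536-well plates were exposed to five √10-spaced library-drug doses for 5 days and counted from 4× Hoechst images in MetaXpress.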

Tivozanib = compound: COc1cc2nccc(Oc3ccc(NC(=O)Nc4cc(C)on4)c(Cl)c3)c2cc1OC [Tivozanib]
Outline: as §1

[1] = compound: Cc1cnc(-c2cnc(NCCNc3ccc(C#N)cn3)nc2-c2ccc(Cl)cc2Cl)[nH]1
Outline: as §1

Pimozide = compound: O=c1[nH]c2ccccc2n1C1CCN(CCCC(c2ccc(F)cc2)c2ccc(F)cc2)CC1 [Pimozide]
Outline: as §1

CPI-613 = compound: O=C(O)CCCCC(CCSCc1ccccc1)SCc1ccccc1 [CPI-613]
Outline: as §1

Docetaxel = compound: CC(=O)O[C@@]12CO[C@@H]1C[C@H](O)[C@@]1(C)C(=O)[C@H](O)C3=C(C)[C@@H](OC(=O)[C@H](O)[C@@H](NC(=O)OC(C)(C)C)c4ccccc4)C[C@@](O)([C@@H](OC(=O)c4ccccc4)[C@H]21)C3(C)C [Docetaxel]
Outline: as §1

Cytarabine = compound: Nc1ccn([C@@H]2O[C@H](CO)[C@@H](O)[C@@H]2O)c(=O)n1 [Cytarabine]
Outline: as §1

Cell Line	relative viability (JQ1; 0.04 µM)	relative viability (JQ1; 0.1265 µM)	relative viability (JQ1; 0.4 µM)	relative viability (JQ1; 1.265 µM)	relative viability (JQ1; 4 µM)	relative viability (Tivozanib; 0.005 µM)	relative viability (Tivozanib; 0.01581 µM)	relative viability (Tivozanib; 0.05 µM)	relative viability (Tivozanib; 0.1581 µM)	relative viability (Tivozanib; 0.5 µM)	relative viability ([1]; 0.08 µM)	relative viability ([1]; 0.253 µM)	relative viability ([1]; 0.8 µM)	relative viability ([1]; 2.53 µM)	relative viability (Pimozide; 0.08 µM)	relative viability (Pimozide; 0.253 µM)	relative viability (Pimozide; 0.8 µM)	relative viability (Pimozide; 2.53 µM)	relative viability (Pimozide; 8 µM)	relative viability (CPI-613; 5 µM)	relative viability (CPI-613; 15.81 µM)	relative viability (CPI-613; 50 µM)	relative viability (CPI-613; 158.11 µM)	relative viability (CPI-613; 500 µM)	relative viability (Docetaxel; 0.0002 µM)	relative viability (Docetaxel; 0.000632 µM)	relative viability (Docetaxel; 0.002 µM)	relative viability (Docetaxel; 0.006325 µM)	relative viability (Docetaxel; 0.02 µM)	relative viability (Cytarabine; 0.005 µM)	relative viability (Cytarabine; 0.01581 µM)	relative viability (Cytarabine; 0.05 µM)	relative viability (Cytarabine; 0.1581 µM)	relative viability (Cytarabine; 0.5 µM)
EMC-BAC-2	0.922	0.667	0.842	0.519	0.48	0.935	1.06	1	0.752	0.792	1.02	0.96	0.923	0.897	0.969	0.933	0.884	0.933	0.955	0.973	0.875	0.982	0.782	0.189	0.905	0.736	0.483	0.304	0.268	1.04	0.866	0.492	0.349	0.257
LXF-289	0.984	0.965	0.981	0.936	0.671	0.998	0.935	0.996	1.1	0.956	1.01	0.864	1.06	1.1	0.963	1	0.917	0.998	0.923	0.922	0.958	0.992	0.78	0.0678	1	0.731	0.473	0.171	0.128	0.93	1	0.883	0.563	0.305
LK-2	0.942	0.907	0.497	0.236	0.218	1.05	0.962	0.937	0.834	0.784	1.14	0.941	0.995	1.15	0.965	0.93	0.843	0.808	1.06	0.943	0.953	1.16	1	0.929	0.921	0.771	0.27	0.208	0.144	0.797	0.604	0.414	0.259	0.212
HCC-827	1.05	–	0.988	1.11	0.883	1.01	1.05	1.1	1.09	1	1.05	–	1.02	1.02	–	1.04	0.955	1.02	1.01	0.993	1.02	1.11	0.908	0.669	0.943	1.07	0.916	0.431	0.328	0.765	0.568	0.417	0.225	0.196
UMC-11	0.926	0.742	0.43	0.29	0.26	0.944	0.954	0.965	–	0.927	0.943	0.787	0.929	1.02	1.01	0.983	0.961	0.976	1.07	0.945	0.924	0.911	0.474	0.133	0.912	0.944	0.456	0.279	0.187	0.75	0.554	0.551	0.316	0.264
Calu-6	0.951	0.804	0.933	0.593	0.425	0.955	1.02	1.04	1.08	0.943	1	0.951	0.969	0.908	1.05	1.01	0.974	0.991	0.897	0.978	0.999	0.913	0.722	0.545	1.01	0.892	0.28	0.157	0.109	0.93	0.865	0.714	0.462	0.313
HCC-15	0.97	–	0.859	0.656	0.6	0.962	0.922	0.949	1.07	0.89	1.06	0.686	0.953	0.892	1.05	0.965	0.725	0.961	0.9	0.96	0.914	0.908	0.465	0.264	0.8	0.536	0.229	0.257	0.149	1.07	0.988	0.966	0.828	0.547
NCI-H358	0.982	0.976	0.941	0.638	0.461	0.898	0.944	1.1	0.915	1.01	0.97	0.818	0.822	0.796	0.796	1.02	0.876	0.943	0.925	0.876	0.949	0.901	0.495	0.038	0.768	0.463	0.251	0.209	0.138	0.912	0.757	0.509	0.2	0.161
A-427	0.902	0.879	0.91	0.653	0.504	0.98	1	1.03	0.902	0.833	1.04	0.852	0.959	0.948	0.952	0.967	0.94	0.882	0.845	1	0.898	0.939	0.772	0.157	0.931	0.952	0.439	0.281	0.171	0.823	0.449	0.329	0.214	0.204
ABC-1	0.947	0.657	0.691	0.572	0.444	0.849	0.919	1	0.793	0.412	0.881	0.682	0.896	0.904	0.811	1.05	0.959	0.897	0.698	1.05	0.802	1.04	0.469	0.226	0.853	0.817	0.472	0.343	0.24	0.907	0.883	0.808	0.732	0.582
NCI-H1650	0.808	0.68	0.578	0.217	0.21	0.786	0.964	0.941	0.946	0.779	1	0.812	0.904	0.761	0.719	0.893	0.883	0.887	0.809	0.877	0.776	0.942	0.137	0.0508	0.705	0.37	0.301	0.205	0.146	0.793	0.633	0.514	0.224	0.225
NCI-H1792	0.801	0.605	0.844	0.408	0.156	0.893	0.912	1.11	0.51	0.762	1.02	0.793	0.923	0.951	0.936	0.843	0.62	0.81	0.763	0.896	0.793	0.956	0.651	0.511	0.715	0.677	0.291	0.213	0.131	–	0.908	0.45	0.411	0.231
NCI-H661	1.03	0.962	0.952	0.879	0.769	0.954	0.975	0.993	0.992	1.01	0.979	0.973	0.975	0.898	0.99	1.01	0.925	0.897	0.924	0.963	0.914	0.956	0.832	0.233	0.93	0.986	1	0.541	0.459	1.04	0.93	0.902	0.715	0.581
NCI-H1437	0.92	0.792	0.762	0.484	0.415	0.968	0.971	0.988	0.982	0.88	1.02	0.928	0.98	1	0.991	0.969	0.959	0.904	0.723	0.96	0.898	0.948	0.345	0.0955	0.914	0.765	0.457	0.281	0.158	0.79	0.64	0.494	0.243	0.206
NCI-H1563	0.898	0.785	0.778	0.648	0.661	0.958	1.05	0.975	0.95	1	1.03	0.999	0.934	1.09	0.952	1.03	0.93	0.869	0.867	1.05	0.957	0.996	0.531	0.307	0.881	0.974	1.08	0.744	0.593	0.936	0.974	0.971	0.835	0.771
SK-MES-1	0.937	0.717	0.603	0.311	0.25	0.997	0.993	1.02	1	0.959	1.09	0.947	1.02	1.1	0.942	0.998	0.979	1.01	0.985	0.967	0.904	0.98	0.531	0.477	1	0.872	0.418	0.267	0.172	0.875	0.712	0.355	0.258	0.221
NCI-H1734	0.934	0.904	0.999	0.664	0.578	0.963	1.03	0.983	0.721	0.885	1.08	0.891	0.974	0.85	0.981	0.901	0.81	0.915	0.974	0.861	0.841	0.884	0.48	0.111	0.857	0.602	0.359	0.332	0.235	0.578	0.342	0.256	0.156	0.136
NCI-H460	0.97	0.617	0.593	0.353	0.197	0.985	1.06	0.989	1.03	0.965	1	0.911	0.981	0.883	1.01	0.95	0.964	0.913	0.922	0.973	0.97	1	0.66	0.515	0.949	0.806	0.288	0.0373	0.0295	0.962	0.894	0.256	0.0513	0.0345
NCI-H2087	0.996	0.661	0.963	0.581	0.451	0.988	0.972	0.956	1.28	0.995	1.12	0.723	1.05	0.886	1.11	1.05	–	1.05	0.773	0.971	1.09	0.954	0.307	0.0055	0.947	0.5	0.223	0.182	0.107	0.946	0.888	0.722	0.614	0.36
